Source: article PMC6154694, “Absorption, Metabolic Stability, and Pharmacokinetics of Ginger Phytochemicals” (Molecules : A Journal of Synthetic Chemistry and Natural …, 2017)

Legend:
[1] = Mouse pharmacokinetic study of oral GE with and without ketoconazole, plasma with and without β-glucuronidase treatment; format: in vivo, male mice (C57BL6J); settings: for Concentration Ratio (Total/Free) of GE Phenolics: GE administered group; for Concentration Ratio (Total/Free) of GE Phenolics / concentration at 0 h / concentration at 0.087 h / concentration at 0.167 h / concentration at 0.25 h / concentration at 0.5 h / concentration at 1 h / concentration at 2 h / concentration at 3 h / concentration at 4 h / concentration at 6 h / concentration at 8 h / concentration at 12 h: mouse plasma; for concentration at 0 h / concentration at 0.087 h / concentration at 0.167 h / concentration at 0.25 h / concentration at 0.5 h / concentration at 1 h / concentration at 2 h / concentration at 3 h / concentration at 4 h / concentration at 6 h / concentration at 8 h / concentration at 12 h: −βgd
Experimental: A solution formulation of GE was prepared by using 5% ethanol, 5% Tween 80, 40% polyethylene glycol, and 50% corn oil. The dose volume was 10 mL/kg and the dose administered was 250 mg/kg GE.
Pharmacokinetic study in male mice (C57BL6J, Harlan Laboratories, Indianapolis, IN, USA) was run with 36 animals in each group at a GE dose of 250 mg/kg with a dose volume of 10 mL/kg. One group was given GE alone and in the second group GE was co-administered with KTZ (50 mg/kg). A terminal sampling design was used to collect blood samples at 0 (pre-dose), 0.08, 0.16, 0.25, 0.5, 1, 2, 3, 4, 6, 8, and 12 h. At each time, 1 mL of blood was collected in ethylenediaminetetraacetic acid di-potassium salt (K2EDTA) tubes (BD Biosciences, Franklin Lakes, NJ, USA). Plasma was separated by centrifugation of samples at 4000 rpm for 10 min and stored below −60 °C till bioanalysis. All experiments were performed with approval from the Institutional Animal Care and Use Committee (IACUC, approval code: A14031). All animals were acclimatized for five days before dosing in the experimental area. Food and water was provided ad libitum throughout the study period. Animals were marked and housed (three per cage, n = 36 per group) in polypropylene cages and maintained in controlled environmental conditions with 12 h light and dark cycles. The temperature and humidity of the room was maintained between 22 ± 3 °C and 30% to 50%, respectively, and approximately 10–12 fresh air change cycles per hour.
To confirm the presence of GE glucuronide conjugates, plasma (100 μL) was treated with βgd (20 μL, 500 units) and incubated at 37 °C for 1 h. Each sample was analyzed twice with and without β-gd treatment. Samples without gde treatment were diluted with 20 μL of buffer. Total (conjugated + free) and free ginger phenolics data were reported following bioanalysis.
All in vitro and in vivo samples were processed by protein precipitation method. An aliquot (100 μL) of the sample was spiked with 200 μL of acetonitrile containing dihydrocapsaicin as internal standard (IS) and vortex mixed for 3 min. The tubes were centrifuged at 12,000 rpm for 10 min and an aliquot of supernatant was transferred into autosampler vials for analysis. The stock solutions of 6G, 8G, 10G, and 6S were prepared in ACN/water (70:30) at 1 mg/mL. A calibration curve (CC) range of 2–2000 ng/mL was employed for the quantification of analytes and IS concentration was 150 ng/mL for each analysis. The CC consisted of blank, blank with IS and seven non-zero calibration standards. The calibration standards were within ±15% of the nominal concentration and lower limit of quantification was within ±20% of nominal. All samples were analyzed using liquid chromatography tandem mass spectrometry (LC-MS/MS) method (Agilent 6410 series, Santa Clara, CA, USA). A positive ionization mode with multiple reaction monitoring (MRM, m/z Q1/Q3) of 6G (m/z 277.1/177.1, retention time (RT) 2.0 min), 8G (m/z 305.1/177.1, RT 4.0 min), 10G (m/z 333.1/177.1, RT 7.7 min), 6S (m/z 277.1/137.1, RT 5.1 min), and IS (m/z 308.2/137.1, RT 3.4 min) was employed. The ion spray voltage was set at 3500 V, ionization temperature was set to 300 °C and drying gas flow rate was 10 L/min. Data acquisition and quantitation were performed using Mass Hunter software (Agilent Technologies, Wilmington, DE, USA). Separation was achieved using HP1100 series LC (Agilent Technologies) with an Agilent Zorbax reversed-phase (SB-C18, 2.1 × 50 mm, 5.0 μm) column. A gradient method was employed to separate the individual GE phenolics using mobile phase A (0.1% formic acid in water) and mobile phase B (Acetonitrile). The gradient elution method with 50% B at 0 min, 90% B at 5 min, held for 2.1 min, back to 50% B at 7.1 min with a flow rate of 0.2 mL/min. An injection volume of 2 μL was used for analysis. […]

[2] = Liver microsomal stability, statements across species; format: in vitro ADME; settings: CD1 (mouse), IGS Sprague-Dawley (rat), Beagle (dog), human, pooled liver microsomes, pH 7.4
Experimental: (§1) Pooled liver microsomes from CD1 mouse, IGS Sprague-Dawley rat, Beagle dog, and mixed gender human were used for assays. Incubations (1 mL) consisted of liver microsomes (0.5 mg/mL), NADPH (1 mM) and 100 mM sodium phosphate buffer (pH 7.4). Following pre-incubation (10 min, 37 °C), reactions were initiated by spiking ACN/DMSO (80:20) stock solutions of GE phenolics (5 μL, 10 μM). Samples (100 μL) were withdrawn at 0, 5, 10, 15, 20 and 30 min and quenched with 200 μL acetonitrile containing internal standard. Concomitant NADPH-free control incubations were prepared similarly.

[3] = Liver microsomal stability, mouse; format: in vitro ADME, CD1 mouse; settings: protein 0.5 mg/mL
Experimental: as §1

[4] = male, C57BL6J, mouse, plasma, po, 250 mg/kg, mouse, 250 mg/kg GE + 50 mg/kg KTZ oral, +KTZ −βgd

Structure (SMILES): CCCCCCCC(O)CC(=O)CCc1ccc(O)c(OC)c1 (stereo not drawn) [8G, 8-gingerol]
- AUClast Ratio ([1]; +KTZ +βgd, reference GE group co-administered with KTZ untreated with βgd): 23
- AUClast Ratio ([1]; +KTZ +βgd, reference GE group untreated with βgd): 1330
- AUClast Ratio ([1]; +KTZ −βgd, reference GE group untreated with βgd): 59
- Concentration Ratio (Total/Free) of GE Phenolics ([1]; 0 h): 0
- Concentration Ratio (Total/Free) of GE Phenolics ([1]; 0.087 h): 532
- Concentration Ratio (Total/Free) of GE Phenolics ([1]; 0.167 h): 439
- Concentration Ratio (Total/Free) of GE Phenolics ([1]; 0.25 h): 653
- Concentration Ratio (Total/Free) of GE Phenolics ([1]; 0.5 h): 948
- Concentration Ratio (Total/Free) of GE Phenolics ([1]; 1 h): 16
- Concentration Ratio (Total/Free) of GE Phenolics ([1]; 2 h): 44
- Concentration Ratio (Total/Free) of GE Phenolics ([1]; 3 h): 29
- Concentration Ratio (Total/Free) of GE Phenolics ([1]; 4 h): 14
- Concentration Ratio (Total/Free) of GE Phenolics ([1]; 6 h): 23
- Concentration Ratio (Total/Free) of GE Phenolics ([1]; 8 h): 0
- Concentration Ratio (Total/Free) of GE Phenolics ([1]; 12 h): 0
- AUC(0-t) [1, 4]: 59.1 ng·h/mL
- Cmax [1, 4]: 45.7 ng/mL
- Tmax [1, 4]: 30 min
- concentration at 0 h ([1]; male, C57BL6J, 250 mg/kg GE oral, 0 h): 0 ng/mL
- concentration at 0.087 h ([1]; male, C57BL6J, 250 mg/kg GE oral, 0.087 h): 0.58 ± 0.45 ng/mL
- concentration at 0.167 h ([1]; male, C57BL6J, 250 mg/kg GE oral, 0.167 h): 0.2 ± 0.14 ng/mL
- concentration at 0.25 h ([1]; male, C57BL6J, 250 mg/kg GE oral, 0.25 h): 0.11 ± 0.05 ng/mL
- concentration at 0.5 h ([1]; male, C57BL6J, 250 mg/kg GE oral, 0.5 h): 0.23 ± 0.08 ng/mL
- concentration at 1 h ([1]; male, C57BL6J, 250 mg/kg GE oral, 1 h): 0.42 ± 0.42 ng/mL
- concentration at 2 h ([1]; male, C57BL6J, 250 mg/kg GE oral, 2 h): 0.43 ± 0.11 ng/mL
- concentration at 3 h ([1]; male, C57BL6J, 250 mg/kg GE oral, 3 h): 0.81 ± 0.66 ng/mL
- concentration at 4 h ([1]; male, C57BL6J, 250 mg/kg GE oral, 4 h): 0.51 ± 0.33 ng/mL
- concentration at 6 h ([1]; male, C57BL6J, 250 mg/kg GE oral, 6 h): 0.49 ± 0.3 ng/mL
- concentration at 8 h ([1]; male, C57BL6J, 250 mg/kg GE oral, 8 h): 0.57 ± 0.23 ng/mL
- concentration at 12 h ([1]; male, C57BL6J, 250 mg/kg GE oral, 12 h): 0.1 ± 0.05 ng/mL
- concentration at 0 h ([1]; male, C57BL6J, 250 mg/kg GE with 50 mg/kg ketoconazole oral, 0 h): 0 ng/mL
- concentration at 0.087 h ([1]; male, C57BL6J, 250 mg/kg GE with 50 mg/kg ketoconazole oral, 0.087 h): 0.48 ± 0.2 ng/mL
- concentration at 0.167 h ([1]; male, C57BL6J, 250 mg/kg GE with 50 mg/kg ketoconazole oral, 0.167 h): 0.63 ± 0.12 ng/mL
- concentration at 0.25 h ([1]; male, C57BL6J, 250 mg/kg GE with 50 mg/kg ketoconazole oral, 0.25 h): 6.93 ± 9.15 ng/mL
- concentration at 0.5 h ([1]; male, C57BL6J, 250 mg/kg GE with 50 mg/kg ketoconazole oral, 0.5 h): 7560 ng/mL
- concentration at 1 h ([1]; male, C57BL6J, 250 mg/kg GE with 50 mg/kg ketoconazole oral, 1 h): 17.9 ± 19.1 ng/mL
- concentration at 2 h ([1]; male, C57BL6J, 250 mg/kg GE with 50 mg/kg ketoconazole oral, 2 h): 16300 ng/mL
- concentration at 3 h ([1]; male, C57BL6J, 250 mg/kg GE with 50 mg/kg ketoconazole oral, 3 h): 11.7 ± 7.35 ng/mL
- concentration at 4 h ([1]; male, C57BL6J, 250 mg/kg GE with 50 mg/kg ketoconazole oral, 4 h): 2.25 ± 1.56 ng/mL
- concentration at 6 h ([1]; male, C57BL6J, 250 mg/kg GE with 50 mg/kg ketoconazole oral, 6 h): 3.71 ± 2.18 ng/mL
- concentration at 8 h ([1]; male, C57BL6J, 250 mg/kg GE with 50 mg/kg ketoconazole oral, 8 h): 1.17 ± 0.11 ng/mL
- concentration at 12 h ([1]; male, C57BL6J, 250 mg/kg GE with 50 mg/kg ketoconazole oral, 12 h): 0.67 ± 0.17 ng/mL
- half-life at 10 µM [2]: < 30 min
- remaining at 0.5 h, 10 µM ([3]; CD1, pooled liver microsomes, pH 7.4, substrate 10 µM, n = 2, read-out: % Remaining at 30 min): 3%
- Intrinsic Clearance ([3]; mouse liver microsomes, substrate 10 µM, 45 mg protein/g liver): 15.1 mL/min/g Liver
